pIC50: −log10 of the molar value.
Experiments:
[1] = target: Porcine gastric mucosa pepsin (Sus scrofa, UniProt P00791); assay: Pepsin FRET assay; format: biochemical
[2] = target: T1, Renin recombinant human enzyme (Homo sapiens, UniProt P00797); assay: Renin FRET assay; format: biochemical
T1 sequence (P00797 67-406): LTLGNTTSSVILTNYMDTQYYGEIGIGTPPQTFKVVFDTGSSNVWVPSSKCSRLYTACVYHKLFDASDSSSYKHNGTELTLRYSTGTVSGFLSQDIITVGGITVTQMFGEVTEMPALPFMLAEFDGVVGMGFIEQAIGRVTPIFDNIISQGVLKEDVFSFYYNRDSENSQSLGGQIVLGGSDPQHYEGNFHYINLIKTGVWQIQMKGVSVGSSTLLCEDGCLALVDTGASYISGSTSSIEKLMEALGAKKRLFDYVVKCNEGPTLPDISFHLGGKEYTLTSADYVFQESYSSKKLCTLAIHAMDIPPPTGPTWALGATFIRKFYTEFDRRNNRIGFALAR

[3] = test system: Aβ; conditions: cited from earlier work

Chain of Porcine gastric mucosa pepsin (P00791 60-385): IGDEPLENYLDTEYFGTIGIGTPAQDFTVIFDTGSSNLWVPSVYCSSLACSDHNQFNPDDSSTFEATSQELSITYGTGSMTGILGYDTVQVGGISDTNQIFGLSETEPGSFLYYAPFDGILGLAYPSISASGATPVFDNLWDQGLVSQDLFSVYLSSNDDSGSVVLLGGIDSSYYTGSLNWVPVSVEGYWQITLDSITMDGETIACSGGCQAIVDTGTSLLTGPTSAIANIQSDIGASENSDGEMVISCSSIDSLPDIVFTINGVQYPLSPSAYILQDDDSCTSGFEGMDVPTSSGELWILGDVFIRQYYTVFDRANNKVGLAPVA

pIC50 [1]	pIC50 [2]	Structure (SMILES)	Aβ reduction explored in Phase III studies [3]
4.11	4.85	NC1=N[C@@]2(c3cc(NC(=O)c4ccc(F)cn4)ccc3F)COC[C@H]2CS1 [LY2886721, reference compound]	
		CN1C(=N)N[C@](C)(c2cc(NC(=O)c3ccc(F)cn3)ccc2F)CS1(=O)=O [verubecestat]	approximately 85%

From publication PMC8842743 (Journal of Alzheimer's Disease Reports, 2022)
